Data reported in ChEMBL document CHEMBL2434896, “Carbonic anhydrase inhibitors. Synthesis of heterocyclic 4-substituted pyridine-3-sulfonamide derivatives and their inhibition of the human cytosolic isozymes I and II and transmembrane tumor-associated isozymes IX and XII” (Eur J Med Chem, 2013).
Activity calls are given as the source filed them. No cut-off for these calls is given here.

What was measured:
LOX IMVI = experiment: Growth inhibition of human LOXIMVI cells at 10 uM after 48 hrs by sulforhodamine B assay; format: functional
U-251 = experiment: Growth inhibition of human U251 cells at 10 uM after 48 hrs by sulforhodamine B assay; format: functional; conditions: U-251, 48 h, read-out: GI
SNB-75 = experiment: Growth inhibition of human SNB75 cells at 10 uM after 48 hrs by sulforhodamine B assay; format: functional; conditions: SNB-75, 48 h, read-out: GI
SNB-19 = experiment: Growth inhibition of human SNB19 cells at 10 uM after 48 hrs by sulforhodamine B assay; format: functional
SF-539 = experiment: Growth inhibition of human SF539 cells at 10 uM after 48 hrs by sulforhodamine B assay; format: functional
SF-295 = experiment: Growth inhibition of human SF295 cells at 10 uM after 48 hrs by sulforhodamine B assay; format: functional
SF-268 = experiment: Growth inhibition of human SF268 cells at 10 uM after 48 hrs by sulforhodamine B assay; format: functional
KM12 = experiment: Growth inhibition of human KM12 cells at 10 uM after 48 hrs by sulforhodamine B assay; format: functional
SW-620 = experiment: Growth inhibition of human SW620 cells at 10 uM after 48 hrs by sulforhodamine B assay; format: functional
HT-29 = experiment: Growth inhibition of human HT-29 cells at 10 uM after 48 hrs by sulforhodamine B assay; format: functional
HCT-15 = experiment: Growth inhibition of human HCT15 cells at 10 uM after 48 hrs by sulforhodamine B assay; format: functional
HCT-116 = experiment: Growth inhibition of human HCT116 cells at 10 uM after 48 hrs by sulforhodamine B assay; format: functional
[1] = Growth inhibition of human HCC2998 cells at 10 uM after 48 hrs by sulforhodamine B assay; format: functional; conditions: HCC 2998, 48 h, read-out: GI
COLO 205 = experiment: Growth inhibition of human COLO205 cells at 10 uM after 48 hrs by sulforhodamine B assay; format: functional
NCI-H522 = experiment: Growth inhibition of human NCI-H522 cells at 10 uM after 48 hrs by sulforhodamine B assay; format: functional; conditions: NCI-H522, 48 h, read-out: GI
NCI-H460 = experiment: Growth inhibition of human NCI-H460 cells at 10 uM after 48 hrs by sulforhodamine B assay; format: functional
NCI-H23 = experiment: Growth inhibition of human NCI-H23 cells at 10 uM after 48 hrs by sulforhodamine B assay; format: functional
NCI-H226 = experiment: Growth inhibition of human NCI-H226 cells at 10 uM after 48 hrs by sulforhodamine B assay; format: functional
HOP-92 = experiment: Growth inhibition of human HOP92 cells at 10 uM after 48 hrs by sulforhodamine B assay; format: functional; conditions: HOP-92, 48 h, read-out: GI
HOP-62 = experiment: Growth inhibition of human HOP62 cells at 10 uM after 48 hrs by sulforhodamine B assay; format: functional
EKVX = experiment: Growth inhibition of human EKVX cells at 10 uM after 48 hrs by sulforhodamine B assay; format: functional
A549 = experiment: Growth inhibition of human A549/ATCC cells at 10 uM after 48 hrs by sulforhodamine B assay; format: functional
SR = experiment: Growth inhibition of human SR cells at 10 uM after 48 hrs by sulforhodamine B assay; format: functional; conditions: read-out: GI
RPMI-8226 = experiment: Growth inhibition of human RPMI8226 cells at 10 uM after 48 hrs by sulforhodamine B assay; format: functional
MOLT-4 = experiment: Growth inhibition of human MOLT4 cells at 10 uM after 48 hrs by sulforhodamine B assay; format: functional; conditions: MOLT-4, 48 h, read-out: GI
HL-60(TB) = experiment: Growth inhibition of human HL-60(TB) cells at 10 uM after 48 hrs by sulforhodamine B assay; format: functional; conditions: HL-60, 48 h, read-out: GI
CCRF-CEM = experiment: Growth inhibition of human CCRF-CEM cells at 10 uM after 48 hrs by sulforhodamine B assay; format: functional; conditions: read-out: GI
Carbonic anhydrase 9 = Carbonic anhydrase 9 (Homo sapiens, UniProt Q16790); experiment: Inhibition of human carbonic anhydrase 9 after 15 mins by stopped flow CO2 hydration assay
MDA-MB-468 = experiment: Growth inhibition of human MDA-MB-468 cells at 10 uM after 48 hrs by sulforhodamine B assay; format: functional
T47D = experiment: Growth inhibition of human T47D cells at 10 uM after 48 hrs by sulforhodamine B assay; format: functional
BT-549 = experiment: Growth inhibition of human BT549 cells at 10 uM after 48 hrs by sulforhodamine B assay; format: functional
Hs-578T = experiment: (§1) Growth inhibition of human Hs 578T cells at 10 uM after 48 hrs by sulforhodamine B assay; format: functional
MDA-MB-231 = experiment: Growth inhibition of human MDA-MB-231 cells at 10 uM after 48 hrs by sulforhodamine B assay; format: functional
MCF7 = experiment: Growth inhibition of human MCF7 cells at 10 uM after 48 hrs by sulforhodamine B assay; format: functional
DU-145 = experiment: Growth inhibition of human DU145 cells at 10 uM after 48 hrs by sulforhodamine B assay; format: functional
TK-10 = experiment: Growth inhibition of human TK10 cells at 10 uM after 48 hrs by sulforhodamine B assay; format: functional
SN12C = experiment: Growth inhibition of human SN12C cells at 10 uM after 48 hrs by sulforhodamine B assay; format: functional
RXF 393 = experiment: Growth inhibition of human RXF393 cells at 10 uM after 48 hrs by sulforhodamine B assay; format: functional
CAKI-1 = experiment: Growth inhibition of human CAKI-1 cells at 10 uM after 48 hrs by sulforhodamine B assay; format: functional
ACHN = experiment: Growth inhibition of human ACHN cells at 10 uM after 48 hrs by sulforhodamine B assay; format: functional
786-0 = experiment: Growth inhibition of human 786-0 cells at 10 uM after 48 hrs by sulforhodamine B assay; format: functional
SK-OV-3 = experiment: Growth inhibition of human SKOV3 cells at 10 uM after 48 hrs by sulforhodamine B assay; format: functional
NCI/ADR-RES = experiment: Growth inhibition of human NCI-ADR-RES cells at 10 uM after 48 hrs by sulforhodamine B assay; format: functional
OVCAR-8 = experiment: Growth inhibition of human OVCAR8 cells at 10 uM after 48 hrs by sulforhodamine B assay; format: functional
OVCAR-5 = experiment: Growth inhibition of human OVCAR5 cells at 10 uM after 48 hrs by sulforhodamine B assay; format: functional
OVCAR-3 = experiment: Growth inhibition of human OVCAR3 cells at 10 uM after 48 hrs by sulforhodamine B assay; format: functional
UACC-62 = experiment: Growth inhibition of human UACC62 cells at 10 uM after 48 hrs by sulforhodamine B assay; format: functional; conditions: UACC-62, 48 h, read-out: GI
UACC-257 = experiment: Growth inhibition of human UACC257 cells at 10 uM after 48 hrs by sulforhodamine B assay; format: functional
SK-MEL-5 = experiment: Growth inhibition of human SK-MEL-5 cells at 10 uM after 48 hrs by sulforhodamine B assay; format: functional
SK-MEL-28 = experiment: Growth inhibition of human SK-MEL-28 cells at 10 uM after 48 hrs by sulforhodamine B assay; format: functional, cell-based
SK-MEL-2 = experiment: Growth inhibition of human SK-MEL-2 cells at 10 uM after 48 hrs by sulforhodamine B assay; format: functional
MDA-MB-435 = experiment: Growth inhibition of human MDA-MB-435 cells at 10 uM after 48 hrs by sulforhodamine B assay; format: functional
M14 = experiment: Growth inhibition of human M14 cells at 10 uM after 48 hrs by sulforhodamine B assay; format: functional
[2] = as §1; format: functional; conditions: read-out: GI

SMILES: CSc1nc(N)n(-c2ccncc2S(N)(=O)=O)n1
- growth inhibition (GI) (LOX IMVI): inactive
- inhibition of growth at 10 µM (U-251): 6%
- inhibition of growth at 10 µM (SNB-75): 7%
- growth inhibition (GI) (SNB-19): inactive
- growth inhibition (GI) (SF-539): inactive
- growth inhibition (GI) (SF-295): inactive
- growth inhibition (GI) (SF-268): inactive
- growth inhibition (GI) (KM12): inactive
- growth inhibition (GI) (SW-620): inactive
- growth inhibition (GI) (HT-29): inactive
- growth inhibition (GI) (HCT-15): inactive
- growth inhibition (GI) (HCT-116): inactive
- inhibition of growth at 10 µM [1]: 10%
- growth inhibition (GI) (COLO 205): inactive
- inhibition of growth at 10 µM (NCI-H522): 1%
- growth inhibition (GI) (NCI-H460): inactive
- growth inhibition (GI) (NCI-H23): inactive
- growth inhibition (GI) (NCI-H226): inactive
- inhibition of growth at 10 µM (HOP-92): 20%
- growth inhibition (GI) (HOP-62): inactive
- growth inhibition (GI) (EKVX): inactive
- growth inhibition (GI) (A549): inactive
- inhibition of growth at 10 µM (SR): 10%
- inhibition of growth at 10 µM (RPMI-8226; RPMI-8226, 48 h, read-out: GI): 2%
- inhibition of growth at 10 µM (MOLT-4): 1%
- inhibition of growth at 10 µM (HL-60(TB)): 3%
- inhibition of growth at 10 µM (CCRF-CEM): 8%
- Ki (Carbonic anhydrase 9): 65.4 nM
- growth inhibition (GI) (MDA-MB-468): inactive
- growth inhibition (GI) (T47D): inactive
- growth inhibition (GI) (BT-549): inactive
- growth inhibition (GI) (Hs-578T): inactive
- inhibition of growth at 10 µM (MDA-MB-231; MDA-MB-231, 48 h, read-out: GI): 1%
- growth inhibition (GI) (MCF7): inactive
- growth inhibition (GI) (DU-145): inactive
- growth inhibition (GI) (TK-10): inactive
- growth inhibition (GI) (SN12C): inactive
- growth inhibition (GI) (RXF 393): inactive
- growth inhibition (GI) (CAKI-1): inactive
- growth inhibition (GI) (ACHN): inactive
- growth inhibition (GI) (786-0): inactive
- growth inhibition (GI) (SK-OV-3): inactive
- growth inhibition (GI) (NCI/ADR-RES): inactive
- growth inhibition (GI) (OVCAR-8): inactive
- growth inhibition (GI) (OVCAR-5): inactive
- growth inhibition (GI) (OVCAR-3): inactive
- inhibition of growth at 10 µM (UACC-62): 4%
- inhibition of growth at 10 µM (UACC-257; UACC-257, 48 h, read-out: GI): 7%
- growth inhibition (GI) (SK-MEL-5): inactive
- growth inhibition (GI) (SK-MEL-28): inactive
- growth inhibition (GI) (SK-MEL-2): inactive
- growth inhibition (GI) (MDA-MB-435): inactive
- growth inhibition (GI) (M14): inactive

SMILES: Cc1nn(-c2ccncc2S(N)(=O)=O)c(C)c1C
- inhibition of growth at 10 µM (U-251): 1%
- inhibition of growth at 10 µM (SNB-75): 6%
- inhibition of growth at 10 µM (SNB-19; SNB-19, 48 h, read-out: GI): 1%
- growth inhibition (GI) (SF-539): inactive
- growth inhibition (GI) (SF-295): inactive
- growth inhibition (GI) (SF-268): inactive
- growth inhibition (GI) (KM12): inactive
- inhibition of growth at 10 µM (SW-620; SW-620, 48 h, read-out: GI): 12%
- growth inhibition (GI) (HT-29): inactive
- growth inhibition (GI) (HCT-15): inactive
- growth inhibition (GI) (HCT-116): inactive
- growth inhibition (GI) (COLO 205): inactive
- inhibition of growth at 10 µM (NCI-H522): 3%
- growth inhibition (GI) (NCI-H460): inactive
- growth inhibition (GI) (NCI-H226): inactive
- inhibition of growth at 10 µM (HOP-92): 25%
- growth inhibition (GI) (HOP-62): inactive
- growth inhibition (GI) (EKVX): inactive
- growth inhibition (GI) (A549): inactive
- inhibition of growth at 10 µM (SR): 16%
- growth inhibition (GI) (RPMI-8226): inactive
- inhibition of growth at 10 µM (MOLT-4): 5%
- inhibition of growth at 10 µM (HL-60(TB)): 9%
- inhibition of growth at 10 µM (CCRF-CEM): 6%
- Ki (Carbonic anhydrase 9): 23.1 nM
- growth inhibition (GI) (MDA-MB-468): inactive
- growth inhibition (GI) (T47D): inactive
- inhibition of growth at 10 µM (BT-549; BT-549, 48 h, read-out: GI): 4%
- inhibition of growth at 10 µM [2]: 20%
- growth inhibition (GI) (MDA-MB-231): inactive
- inhibition of growth at 10 µM (MCF7; MCF7, 48 h, read-out: GI): 4%
- growth inhibition (GI) (DU-145): inactive
- growth inhibition (GI) (TK-10): inactive
- inhibition of growth at 10 µM (SN12C; read-out: GI): 9%
- growth inhibition (GI) (RXF 393): inactive
- growth inhibition (GI) (CAKI-1): inactive
- growth inhibition (GI) (ACHN): inactive
- growth inhibition (GI) (786-0): inactive
- growth inhibition (GI) (SK-OV-3): inactive
- growth inhibition (GI) (OVCAR-8): inactive
- growth inhibition (GI) (OVCAR-5): inactive
- growth inhibition (GI) (OVCAR-3): inactive
- inhibition of growth at 10 µM (UACC-62): 3%
- growth inhibition (GI) (UACC-257): inactive
- inhibition of growth at 10 µM (SK-MEL-5; SK-MEL-5, 48 h, read-out: GI): 3%
- growth inhibition (GI) (SK-MEL-28): inactive
- growth inhibition (GI) (SK-MEL-2): inactive
- growth inhibition (GI) (MDA-MB-435): inactive
- inhibition of growth at 10 µM (M14; M14, 48 h, read-out: GI): 2%
